Calls of active or inactive are those of the source. The rule behind the calls is not given here.
Experiments:
Mus musculus [1] = experiment: Inhibition of Th1 response in silica-induced C57BL/6 mouse lung inflammation and fibrosis model assessed as decrease in IFN-gamma mRNA expression in spleen at 2 mg, ip administered every day measured on day 7, 28 by real time RT-PCR method relative to silica-treated control; format: functional, organism-based
Mus musculus [2] = experiment: Inhibition of Th17 response in spleen in silica-induced C57BL/6 mouse lung inflammation and fibrosis model assessed as decrease in level of CD4+T cells coexpressing IL-17A at 2 mg, ip administered every day measured on day 7 by flow cytometric analysis (reference value: 0.9 +/- 0.11%); format: functional, CD4+T cell
Mus musculus [3] = experiment: Inhibition of Th17 response in silica-induced C57BL/6 mouse lung inflammation and fibrosis model assessed as decrease in IL-17A mRNA expression in lung at 2 mg, ip administered every day measured on day 7 by real time RT-PCR method relative to silica-treated control; format: functional, organism-based
Mus musculus [4] = experiment: Antiinflammatory activity in C57BL/6 mouse silicosis model assessed as silica-induced accumulation of lymphocytes in bronchoalveolar lavage fluid at 2 mg, ip administered every day measured on day 7,28 and 56 by Giemsa staining method; format: functional, organism-based
Mus musculus [5] = experiment: Antiinflammatory activity in C57BL/6 mouse silicosis model assessed as reduction in silica-induced accumulation of neutrophils in bronchoalveolar lavage fluid at 2 mg, ip administered every day measured on day 7 by Giemsa staining method; format: functional, organism-based
Mus musculus [6] = experiment: Inhibition of Th17 response in spleen in silica-induced C57BL/6 mouse lung inflammation and fibrosis model assessed as decrease in level of CD4+T cells coexpressing IL-17A at 2 mg, ip administered every day measured on day 28 by flow cytometric analysis (reference value: 0.68 +/- 0.07%); format: functional, CD4+T cell
Mus musculus [7] = experiment: Inhibition of silica-induced lung fibrosis in C57BL/6 mouse silicosis model at 2 mg, ip administered every day measured on day 28 to 56 by Masson staining-based light microscopic analysis; format: functional, organism-based
Mus musculus [8] = experiment: Induction of Treg response in silica-induced C57BL/6 mouse lung inflammation and fibrosis model assessed as increase in level of CD4+T cells coexpressing Foxp3 in hilar lymph node at 2 mg, ip administered every day measured on day 56 by flow cytometric analysis (reference value: 8.76 +/- 0.23%); format: functional, CD4+T cell
Mus musculus [9] = experiment: Induction of Treg response in silica-induced C57BL/6 mouse lung inflammation and fibrosis model assessed as increase in level of CD4+T cells coexpressing Foxp3 in spleen at 2 mg, ip administered every day measured on day 28 by flow cytometric analysis (reference value: 10.88 +/- 0.55 %); format: functional, CD4+T cell
Mus musculus [10] = experiment: (§1) Inhibition of Th17 cell differentiation in silica-induced C57BL/6 mouse lung inflammation and fibrosis model assessed as decrease in IL-6 protein level in bronchoalveolar lavage fluid at 2 mg, ip administered every day measured on day 28 to 56 by cytometric bead array method; format: functional, organism-based
Mus musculus [11] = experiment: Antiinflammatory activity in C57BL/6 mouse silicosis model assessed as silica-induced accumulation of macrophages in bronchoalveolar lavage fluid at 2 mg, ip administered every day measured on day 7,28 and 56 by Giemsa staining method; format: functional, organism-based
Mus musculus [12] = experiment: Inhibition of Th17 response in silica-induced C57BL/6 mouse lung inflammation and fibrosis model assessed as decrease in RORgammat mRNA expression in spleen at 2 mg, ip administered every day measured on day 7, 28, 56 by real time RT-PCR method relative to silica-treated control; format: functional, organism-based
Mus musculus [13] = experiment: Induction of Treg response in silica-induced C57BL/6 mouse lung inflammation and fibrosis model assessed as increase in level of CD4+T cells coexpressing Foxp3 in spleen at 2 mg, ip administered every day measured on day 56 by flow cytometric analysis (reference value: 10 +/- 0.53 %); format: functional, CD4+T cell
Mus musculus [14] = experiment: Inhibition of Th17 cell differentiation in silica-induced C57BL/6 mouse lung inflammation and fibrosis model assessed as decrease in IL-6 mRNA expression in lung at 2 mg, ip administered every day measured on day 7 by real time RT-PCR method relative to silica-treated control; format: functional, organism-based
Mus musculus [15] = experiment: Inhibition of Th1 response in silica-induced C57BL/6 mouse lung inflammation and fibrosis model assessed as decrease in TNFalpha mRNA expression in bronchoalveolar lavage fluid at 2 mg, ip administered every day measured on day 7 by real time RT-PCR method; format: functional, organism-based
Mus musculus [16] = experiment: Induction of Treg response in silica-induced C57BL/6 mouse lung inflammation and fibrosis model assessed as increase in IL-10 mRNA expression in lung at 2 mg, ip administered every day measured on day 7, 28 by real time RT-PCR method relative to silica-treated control; format: functional, organism-based
Mus musculus [17] = experiment: Inhibition of Th17 cell differentiation in silica-induced C57BL/6 mouse lung inflammation and fibrosis model assessed as increase in IL-23 mRNA expression in lung at 2 mg, ip administered every day measured on day 28, 56 by real time RT-PCR method relative to silica-treated control; format: functional, organism-based
Mus musculus [18] = experiment: as §1, with “7” for “28 to 56”, “method relative to silica-treated control” for “method”; format: functional, organism-based
Mus musculus [19] = experiment: Induction of Treg response in silica-induced C57BL/6 mouse lung inflammation and fibrosis model assessed as increase in Foxp3 mRNA expression in spleen at 2 mg, ip administered every day measured on day 7, 28 by real time RT-PCR method relative to silica-treated control; format: functional, organism-based
Mus musculus [20] = experiment: Antiinflammatory activity in C57BL/6 mouse silicosis model assessed as reduction in silica-induced accumulation of total cells in bronchoalveolar lavage fluid at 2 mg, ip administered every day measured on day 7,28 and 56 by Giemsa staining method; format: functional, organism-based
Mus musculus [21] = experiment: Inhibition of Th17 response in spleen in silica-induced C57BL/6 mouse lung inflammation and fibrosis model assessed as decrease in level of CD4+T cells coexpressing IL-17A at 2 mg, ip administered every day measured on day 56 by flow cytometric analysis (reference value: 0.6 +/- 0.03%); format: functional, CD4+T cell
Mus musculus [22] = experiment: Induction of Treg response in silica-induced C57BL/6 mouse lung inflammation and fibrosis model assessed as increase in level of CD4+T cells coexpressing Foxp3 in hilar lymph node at 2 mg, ip administered every day measured on day 28 by flow cytometric analysis (reference value: 8.18 +/- 0.61%); format: functional, CD4+T cell
Mus musculus [23] = experiment: Inhibition of Th17 response in hilar lymph node in silica-induced C57BL/6 mouse lung inflammation and fibrosis model assessed as decrease in level of CD4+T cells coexpressing IL-17A at 2 mg, ip administered every day measured on day 7 by flow cytometric analysis (reference value: 1.08 +/- 0.07%); format: functional, CD4+T cell
Mus musculus [24] = experiment: Inhibition of Th2 response in silica-induced C57BL/6 mouse lung inflammation and fibrosis model assessed as decrease in GATA-3 mRNA expression in lung at 2 mg, ip administered every day measured on day 7, 56 by real time RT-PCR method relative to silica-treated control; format: functional, organism-based
Mus musculus [25] = experiment: Induction of Treg response in silica-induced C57BL/6 mouse lung inflammation and fibrosis model assessed as increase in Foxp3 mRNA expression in lung at 2 mg, ip administered every day measured on day 28, 56 by real time RT-PCR method relative to silica-treated control; format: functional, organism-based
Mus musculus [26] = experiment: Induction of Treg response in silica-induced C57BL/6 mouse lung inflammation and fibrosis model assessed as increase in TGF-beta mRNA expression at 2 mg, ip administered every day measured on day 7 by real time RT-PCR method relative to silica-treated control; format: functional, organism-based
Mus musculus [27] = experiment: Inhibition of Th2 response in silica-induced C57BL/6 mouse lung inflammation and fibrosis model assessed as decrease in IL-4 level in bronchoalveolar lavage fluid at 2 mg, ip administered every day measured on day 7, 28, 56 by cytometric bead array method relative to silica-treated control; format: functional, organism-based
Mus musculus [28] = experiment: Inhibition of Th17 cell differentiation in silica-induced C57BL/6 mouse lung inflammation and fibrosis model assessed as decrease in IL-6 mRNA expression in lung at 2 mg, ip administered every day measured on day 28, 56 by real time RT-PCR method relative to silica-treated control; format: functional, organism-based
Mus musculus [29] = experiment: Inhibition of Th1 response in silica-induced C57BL/6 mouse lung inflammation and fibrosis model assessed as decrease in level of CD4+T cells coexpressing IFNgamma at 2 mg, ip administered every day measured on day 7 by flow cytometric analysis; format: functional, organism-based; conditions: CD4+T cell
Mus musculus [30] = experiment: Induction of Treg response in silica-induced C57BL/6 mouse lung inflammation and fibrosis model assessed as increase in level of CD4+T cells coexpressing Foxp3 in spleen at 2 mg, ip administered every day measured on day 7 by flow cytometric analysis (reference value: 11.75 +/- 1.03%); format: functional, CD4+T cell
Mus musculus [31] = experiment: Inhibition of Th1 response in silica-induced C57BL/6 mouse lung inflammation and fibrosis model assessed as decrease in IFN-gamma mRNA expression in lung at 2 mg, ip administered every day measured on day 7 by real time RT-PCR method relative to silica-treated control; format: functional, organism-based
Mus musculus [32] = experiment: Antiinflammatory activity in C57BL/6 mouse silicosis model assessed as reduction in alveolar wall change at 2 mg, ip administered every day measured on day 7,28 and 56 by haematoxylin and eosin staining-based light microscopic analysis relative to silica-treated control; format: functional, organism-based
Mus musculus [33] = experiment: Inhibition of Th17 cell differentiation in silica-induced C57BL/6 mouse lung inflammation and fibrosis model assessed as increase in IL-23 mRNA expression in lung at 2 mg, ip administered every day measured on day 7 by real time RT-PCR method relative to silica-treated control; format: functional, organism-based
Mus musculus [34] = experiment: Inhibition of Th17 response in hilar lymph node in silica-induced C57BL/6 mouse lung inflammation and fibrosis model assessed as decrease in level of CD4+T cells coexpressing IL-17A at 2 mg, ip administered every day measured on day 28 by flow cytometric analysis (reference value: 0.76 +/- 0.07%); format: functional, CD4+T cell
Mus musculus [35] = experiment: Induction of Treg response in silica-induced C57BL/6 mouse lung inflammation and fibrosis model assessed as increase in level of CD4+T cells coexpressing Foxp3 in hilar lymph node at 2 mg, ip administered every day measured on day 7 by flow cytometric analysis (reference value: 12.14 +/- 0.53%); format: functional, CD4+T cell
Mus musculus [36] = experiment: Antiinflammatory activity in C57BL/6 mouse silicosis model assessed as reduction in inflammatory cell infiltration at 2 mg, ip administered every day measured on day 7,28 and 56 by haematoxylin and eosin staining-based light microscopic analysis relative to silica-treated control; format: functional, organism-based

**Q.** Which inhibition (Mus musculus [1]) does the source give for `O=C(O)[C@H]1O[C@@H](Oc2cc3oc(-c4ccccc4)cc(=O)c3c(O)c2O)[C@H](O)[C@@H](O)[C@@H]1O` [BAICALIN] here?
**A.** Active

**Q.** And the “IL-17A+ CD4+ T cells” value (Mus musculus [2])?
**A.** 0.42%

**Q.** What about the inhibition (Mus musculus [3]) of the same compound?
**A.** Active

**Q.** And the Activity (Mus musculus [4])?
**A.** Active

**Q.** And the Activity (Mus musculus [5])?
**A.** Active

**Q.** What about the “IL-17A+ CD4+ T cells” value (Mus musculus [6]) of the same compound?
**A.** 0.42%

**Q.** And the inhibition (Mus musculus [7])?
**A.** Active

**Q.** What about the Activity (Mus musculus [8]) of the same compound?
**A.** 10.3%

**Q.** And the Activity (Mus musculus [9])?
**A.** 14.34%

**Q.** What about the inhibition (Mus musculus [10]) of the same compound?
**A.** inactive

**Q.** What about the Activity (Mus musculus [11]) of the same compound?
**A.** inactive

**Q.** And the inhibition (Mus musculus [12])?
**A.** Active

**Q.** And the Activity (Mus musculus [13])?
**A.** 11.76%

**Q.** What about the inhibition (Mus musculus [14]) of the same compound?
**A.** Active

**Q.** And the inhibition (Mus musculus [15])?
**A.** Active

**Q.** And the Activity (Mus musculus [16])?
**A.** Active

**Q.** And the inhibition (Mus musculus [17])?
**A.** Active

**Q.** What about the inhibition (Mus musculus [18]) of the same compound?
**A.** Active

**Q.** And the Activity (Mus musculus [19])?
**A.** Active

**Q.** What about the Activity (Mus musculus [20]) of the same compound?
**A.** Active

**Q.** And the “IL-17A+ CD4+ T cells” value (Mus musculus [21])?
**A.** 0.4%

**Q.** And the Activity (Mus musculus [22])?
**A.** 13.72%

**Q.** What about the “IL-17A+ CD4+ T cells” value (Mus musculus [23]) of the same compound?
**A.** 0.46%

**Q.** What about the inhibition (Mus musculus [24]) of the same compound?
**A.** Active

**Q.** And the Activity (Mus musculus [25])?
**A.** Active

**Q.** And the Activity (Mus musculus [26])?
**A.** Active

**Q.** What about the inhibition (Mus musculus [27]) of the same compound?
**A.** Active

**Q.** And the inhibition (Mus musculus [28])?
**A.** inactive

**Q.** What about the inhibition (Mus musculus [29]) of the same compound?
**A.** Active

**Q.** And the Activity (Mus musculus [30])?
**A.** 17.4%

**Q.** And the inhibition (Mus musculus [31])?
**A.** Active

**Q.** And the Activity (Mus musculus [32])?
**A.** Active

**Q.** And the inhibition (Mus musculus [33])?
**A.** inactive

**Q.** And the “IL-17A+ CD4+ T cells” value (Mus musculus [34])?
**A.** 0.5%

**Q.** And the Activity (Mus musculus [35])?
**A.** 15.92%

**Q.** And the Activity (Mus musculus [36])?
**A.** Active

From ChEMBL document CHEMBL3758179, “Baicalin Alleviates Silica-Induced Lung Inflammation and Fibrosis by Inhibiting the Th17 Response in C57BL/6 Mice” (2015)
